Test results: publication PMC8429736, “Pharmacological characterization of mutant huntingtin aggregate-directed PET imaging tracer candidates” (Scientific Reports, 2021)

Experiments:
Exon1-Q46 aggregates = biological target: T1, Exon1-Q46 aggregates (Homo sapiens, UniProt P42858, INS38QQQQQQQQQQQQQQQQQQQQQQQQQ); assay: RBA competition binding against tritiated 3, Exon1-Q46 aggregates; conditions: 0.3 nM tritiated 3 as radioligand; 1 µM aggregates; mean ± SD; read-out: IC50 Exon1-Q46
T1 construct: MBP-HTT(1-89)Q46-His(6x); MBP (N, cleaved yes); made in house; host or cells: E. coli BL21 (DE3)
Description: (§1) For the competition assay format, Q46 or Exon1-Q46 aggregates at 1 µM (sample volume 150 µL) were pre-incubated in a 96-well round bottom plate (Corning, #3365) for 20 min with test compounds at room temperature (assay buffer 50 mM Tris–HCl pH 8.0, 150 mM NaCl). […] Radioligand 3 at 0.3 nM was added and incubated for 1 h at 37 °C.
(§2) Samples were then transferred onto a 96-well GF/B filter plate (Perkin Elmer, #6005177) using a Filtermate Harvester, aspirated by vacuum and wells washed twice with 200 µL PBS. After drying the filter plates for 1 h at 55 °C the back of the plate was sealed with aluminum cover and 30 µL of scintillation fluid (Perkin Elmer, #6013641) per well was added. The tops of the plates were sealed, and the plates were incubated for 15 min in the dark and counted in a TopCount or MicroBeta2 reader (both Perkin Elmer).
(§3) Raw sample data collected as counts per minute (cpm) were normalized towards assay controls: 0% inhibition = radioligand + protein + vehicle, 100% inhibition = radioligand + protein + 1 µM unlabeled ligand. A 4-parameter […] fit was applied to generate IC50 values.

Q46 aggregates = assay: RBA competition binding against tritiated 3, Q46 aggregates; conditions: 0.3 nM tritiated 3 as radioligand; 1 µM aggregates; mean ± SD
Description: as §1, §2, §3

[1] = tested on: beta amyloid/tau aggregates in post-mortem AD patient brain homogenates; assay: ADbh RBA competition format; assay type: binding, human; conditions: for displacement of bound 5: radioligand 5
Description: (§4) For RBA in vitro binding assays, brain tissue was sliced (50 µm), weighed and homogenized in PBS (Gibco, 14190-94), 0.1% BSA with a glass pestle (10 strokes) at a concentration of 12–15 mg wet tissue per mL buffer. The crude homogenate concentration was then adjusted to 10 mg/mL (wet tissue) and stored as single-use aliquots at -80 °C.
RBA experiments using Alzheimer’s disease brain homogenates (ADbh RBA) followed the same assay principle as the RBA with recombinant HTT protein, using 0.68 mg/mL homogenate (100 µg per well with 150 µL assay volume) in assay buffer PBS, 0.01% Pluronic F127 (Sigma. P2443) and 1% DMSO after compound addition. […] Incubation at room temperature was conducted for 20 min after compound addition and for 5 h after radioligand addition. For the competition format, raw cpm were normalized towards assay controls as before, to obtain inhibition between 0 and 100%. For saturation binding, raw cpm were converted into nM as before, using a calibration line of total added radioligand, and normalized to mg of added homogenate to finally obtain pmol/mg.

[2] = biological target: beta amyloid plaques (6E10 antibody) (Homo sapiens, UniProt P05067); assay: HR ARG co-registration with 6E10 antibody, human AD brain sections; assay type: binding; conditions: 10 nM CHDI-180, 10 nM CHDI-626, 0.1 nM PiB, 1 nM T808
[3] = biological target: phospho-Tau tangles (AT8 antibody) (Homo sapiens, UniProt P10636); assay: HR ARG co-registration with AT8 antibody, human AD brain sections; assay type: binding; conditions: 10 nM CHDI-180, 10 nM CHDI-626, 0.1 nM PiB, 1 nM T808
[4] = biological target: beta amyloid/tau aggregates in post-mortem AD patient brain homogenates; assay: ADbh RBA saturation (direct) binding; design: species or system human; conditions: 100 µg homogenate per well
Description: as §4
RBA experiments using Alzheimer’s disease brain homogenates (ADbh RBA) followed the same assay principle as the RBA with recombinant HTT protein, using 0.68 mg/mL homogenate (100 µg per well with 150 µL assay volume) in assay buffer PBS, 0.01% Pluronic F127 (Sigma. P2443) and 1% DMSO after compound addition. Competition experiments were conducted with 0.5 nM radioligand 4 and 50 µg homogenate per well. Incubation at room temperature was conducted for 20 min after compound addition and for 5 h after radioligand addition. For the competition format, raw cpm were normalized towards assay controls as before, to obtain inhibition between 0 and 100%. For saturation binding, raw cpm were converted into nM as before, using a calibration line of total added radioligand, and normalized to mg of added homogenate to finally obtain pmol/mg.

T1 sequence (P42858 with tags, fused parts or gaps with the stated changes): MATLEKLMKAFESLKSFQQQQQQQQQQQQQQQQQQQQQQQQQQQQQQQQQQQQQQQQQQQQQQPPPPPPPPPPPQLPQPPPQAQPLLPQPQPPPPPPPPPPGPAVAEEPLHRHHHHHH
phospho-Tau tangles (AT8 antibody), sequence (P10636 623-695 limits assumed): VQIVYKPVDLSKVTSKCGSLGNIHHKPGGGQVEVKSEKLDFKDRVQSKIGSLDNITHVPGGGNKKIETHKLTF
beta amyloid plaques (6E10 antibody), sequence (P05067 672-713 limits assumed): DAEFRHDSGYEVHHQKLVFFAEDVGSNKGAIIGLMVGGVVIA

Row | SMILES | IC50 (Exon1-Q46 aggregates) [nM] | IC50 (Q46 aggregates) [nM] | heterologous competition with radioligand 4 ([1]; radioligand 4) | displacement of bound 5 [1] | co-registration with 6E10-positive beta amyloid plaques [2] | co-registration with AT8-positive phospho-Tau immunoreactivity [3] | Kd [4] [nM] | Bmax, AD brain homogenate [4] [pmol/mg] | displacement of 4 at 0.1 µM ([1]; radioligand 4, compound 0.1 µM)
1 | FCCC1CCN(c2ccn3c(n2)nc2ccccc23)CC1 [Compound T808] | > 333 | > 333 | could not compete | ~ 50% | not with 6E10 antibody | co-registered with AT8 | – | – | –
2 | CNc1ccc(-c2nc3ccc(O)cc3s2)cc1F [Flutemetamol] | – | – | complete displacement | complete displacement | – | – | – | – | –
3 | CNc1ccc(-c2nc3ccc(O)cc3s2)cc1 [PiB] | 72.5 ± 0.4 | > 333 | – | – | – | – | 3.4 | – | –
4 | [11CH3]Nc1ccc(-c2nc3ccc(O)cc3s2)cc1 [PiB] | – | – | complete displacement | complete displacement | – | not with AT8 immunoreactivity | – | 10.5 | fully displace
